# Results taken from US4594238A (Regents of University of Minnesota, priority 1984, dated 1986).
# Entries after “also recorded” stand apart in the source; their conditions may differ. Read-outs that look alike come from different tables or passages of the source.
# Assays:
# Pt/DNA complexes = settings: cited from earlier work
# [1] = thiourea administered prior to the platinum (II); cited from earlier work
# [2] = system: thyroid hormone production; settings: cited from earlier work
# [3] = Urinary excretion of free and conjugated DDTC; assay type: in vivo, rats; settings: rat, urine, ip, 500 mg/kg, NaDDTC 500 mg/kg ip
# From the text: Intravenous administration was explored in an attempt to deliver larger quantities of free DDTC anion to the likely site of toxicity in the renal tubule; urinary excretion of DDTC was monitored as a means of estimating changes in tubular levels of free DDTC. The standard assay for DDTC anion utilizes a spectrophotometric determination following reaction with cupric ion to form the colored Cu(DDTC)2 complex. Unfortunately, the affinity of cupric ion for sulfur ligands is such that this metal ion will catalyze the decomposition of the DDTC glucuronide and therefore will not discriminate between free and conjugated DDTC. Ferric ion does react selectively with the free ligand, thereby providing a convenient assay for both free and total DDTC in urine.
# Excretion of free and conjugated NaDDTC in the urine of rats was measured as follows. NaDDTC was administered in selected doses via intraperitoneal or intravenous injection. Rats were then placed in metabolic cages and urine was collected and analyzed at 30 minute intervals. Urine samples (0.1-5.0 ml) were added to 2 ml of a solution containing ferric nitrate (20 mM) and sodium citrate (200 mM). The dark Fe (DDTC)3 complex was extracted into chloroform (4 ml) by vortexing for 5 minutes. The mixture was chilled, centrifuged for 1 minute, and the chloroform layer separated. To this chloroform solution was added saturated aqueous cupric sulfate (2 ml), and the mixture was vortexed for 5 minutes, chilled, and centrifuged for 1 minute. The chloroform solution was separated and the Cu(DDTC)2absorbance measured at 435 nm. Free DDTC was determined by comparison of absorbance to a standard curve. Total DDTC was determined by addition of 0. 05-1.0 ml of urine to 3 ml of saturated cupric sulfate followed by incubation at 45° for 30 minutes. The resulting Cu(DDTC)2 complex was extracted into chloroform and analyzed as described above. DDTC-glucuronide excretion was determined by subtraction of free from total DDTC.
# [4] = rats; cited from earlier work
# [5] = cited from earlier work
# [6] = Protection of rats against DDP toxicity by i.p. NaDDTC (BUN, weight loss, diarrhea, histopathology), Example 1 / Table 1; assay type: in vivo, Male F344 (Fischer) rats; settings: for Incidence of Diarrhea: DDP […] i.v.; for BUN / Weight Loss: Day 5, DDP […] i.v.
# From the text: Male F344 (Fischer) rats (average weight, 150 g) were obtained from the Charles River Breeding Laboratory. They were divided into groups of four rats, placed in methacrylate cages, and given National Institute of Health chow for rodents and water ad lib, for 7 days. Average weight of the rats was 180 g (range, 160-200 g) when injected.
# Tetraethylthiuram disulfide (disulfiram) was obtained from Sigma Chemical Co., St. Louis MO. […] Trav. Chim. 70:917 (1951); immediately prior to injection, it was dissolved in sterile water at a concentration of 100 mg/ml. Sodium bicarbonate was prepared in sterile water at a concentration of 50 mg/ml. All injections were carried out under brief ether anesthesia.
# Otherwise, weight and BUN were determined at 5 days after injection, reportedly the time of maximal observed toxicity. Evidence of gastrointestinal toxicity was obtained qualitatively by noting the presence or absence of diarrhea 3-5 days after injection.
# Randomly selected animals were sacrificed at 5 days after injection for study of histopathologic changes in the kidney and to note the presence or absence of hemorrhagic enteritis. Kidneys were removed, placed in Zenker's fixative, embedded in paraffin, sectioned at 6 μm, and stained with hematoxylin and eosin.
# Rat mammary tumor 13762 = experiment: Comparative tumor response to DDP with and without NaDDTC rescue, Example 2; assay type: in vivo, Female F344 (Fischer) rats
# Procedure: (§1) Female F344 (Fischer) rates, initial weight 100-150 g, were obtained from the Charles River Breeding Laboratory, Wilmington, MA. They were housed in methacrylate cages and given Purina rat chow and water ad libitum for at least one week. Lean weight of the rats were 150 g at the onset of experiments unless otherwise noted.
# (§2) Mammary Tumor 13762 was obtained in the form of an implanted tumor in a female F344 rat. All intravenous injections were carried out under brief ether anesthesia.
# Tumor inoculation was carried out as follows: two rats bearing tumors having a mean diameter of 2.5-3.5 cm were sacrificed using ether anesthesia. The tumors were excised immediately, finely minced, combined, and resuspended in 20-40 ml of normal saline. This suspension was filtered through a gauze pad to remove coarse pieces of tissue and the resulting suspension inoculated subcutaneously (0.2-0.5 ml/injection) into the left flank of each rat.
# [7] = Comparative nephrotoxicity: low-dose i.v. vs high-dose i.p. NaDDTC rescue after DDP, Example 2; assay type: in vivo, Female F344 (Fischer) rats; settings: for Kidney sections / Day 5 BUN (mean ±SEM) / Diarrhea / Weight loss on day 5: DDP 6 mg/kg i.v.
# Procedure: as §1, §2
# [8] = Reduction of toxicity (including bone marrow toxicity) of platinum compounds, Example 4; assay type: in vivo; settings: platinum compounds of drawing 16, X=OH or H2O
# [9] = DDTC 500 mg/kg ip 1/2 hour after DDP, n=4
# [10] = DDTC 500 mg/kg ip 1 hour after DDP, n=4
# [11] = DDTC 500 mg/kg ip 2 hours after DDP, n=4
# [12] = DDTC 750 mg/kg ip 0 hours after DDP, n=12
# [13] = DDTC 750 mg/kg ip 3/4 hour after DDP, n=5
# [14] = DDTC 750 mg/kg ip 1 hour after DDP, n=16
# [15] = DDTC 750 mg/kg ip 2 hours after DDP, n=14
# [16] = DDTC 750 mg/kg ip 3 hours after DDP, n=10
# [17] = DDTC 750 mg/kg ip 4 hours after DDP, n=7
# [18] = DDTC 750 mg/kg ip 6 hours after DDP, n=5
# [19] = DDTC 750 mg/kg ip at -1/2 hour (30 minutes before DDP), n=4
# [20] = DDTC 750 mg/kg ip, rescue time printed 11/2 hours after DDP, n=15
# [21] = NaDDTC administered between 1 and 4 hours after DDP
# [22] = NaDDTC immediately after DDP (time=0 hour)
# [23] = DDP 2 mg/kg i.v., NaDDTC 100 mg/kg i.v.
# [24] = DDP 2 mg/kg, DDTC 750 mg/kg ip 2 hours later
# [25] = DDP 8 mg/kg with DDTC rescue 750 mg/kg ip
# [26] = NaDDTC 100 mg/kg i.v. 2 hours after DDP
# [27] = NaDDTC 750 mg/kg i.p. 2 hours after DDP
smiles,measurement,setting,value
NC(N)=S [thiourea],Reversal of Pt/DNA complexing,Pt/DNA complexes,does reverse Pt/DNA complexing
same,Efficacy of platinum (II),[1],Decreased efficacy of platinum (II)
same,Inhibition of thyroid hormone production,[2],reported to inhibit thyroid hormone production
CCN(CC)C(=S)[S][Na],dose excreted at 2 h,"[3]; within 2 hours, read-out: Free ligand in urine, of the initial dose",< 0.1%
same,dose excreted at 2 h,"[3]; read-out: Total DDTC excreted by the kidneys within 2 hours, of the dose given",18 to 20%
same,LD50,[4],"at least 1,500 mg/kg"
same,Solubility in alcohol,[5]; alcohol,also soluble in alcohol
same,Solubility in water,[5]; water,"highly soluble in water, e.g. in molar quantities"
"CCN(CC)C(=S)[S-].[Na+] [DDTC, sodium diethyldithiocarbamate]",Incidence of Diarrhea,[6]; DDTC 750 mg/kg ip 0 hours after DDP,0/6
same,Incidence of Diarrhea,[6]; DDTC 750 mg/kg ip 3/4 hour after DDP,0/5
same,Incidence of Diarrhea,[6]; DDTC 750 mg/kg ip 1 hour after DDP,0/8
same,Incidence of Diarrhea,[6]; DDTC 750 mg/kg ip 2 hours after DDP,0/14
same,Incidence of Diarrhea,[6]; DDTC 750 mg/kg ip 6 hours after DDP,2/5
same,Incidence of Diarrhea,"[6]; DDTC 750 mg/kg ip 6 hours after DDP, listed as NaDDTC",two of the five
same,BUN,[6]; [9],152 ± 20 mg/dL
same,Weight Loss,[6]; [9],4 ± 2%
same,BUN,[6]; [10],90 ± 5 mg/dL
same,Weight Loss,[6]; [10],4 ± 1%
same,BUN,[6]; [11],72 ± 11 mg/dL
same,Weight Loss,[6]; [11],2 ± 2%
same,BUN,[6]; [12],214 ± 21 mg/dL
same,Weight Loss,[6]; [12],9 ± 1%
same,BUN,[6]; [13],56 ± 9 mg/dL
same,Weight Loss,[6]; [13],8 ± 2%
same,BUN,[6]; [14],63 ± 4 mg/dL
same,Weight Loss,[6]; [14],13 ± 1%
same,BUN,[6]; [15],95 ± 9 mg/dL
same,Weight Loss,[6]; [15],15 ± 1%
same,BUN,[6]; [16],77 ± 8 mg/dL
same,Weight Loss,[6]; [16],10 ± 1%
same,BUN,[6]; [17],106 ± 8 mg/dL
same,Weight Loss,[6]; [17],14 ± 1%
same,BUN,[6]; [18],209 ± 44 mg/dL
same,Weight Loss,[6]; [18],18 ± 2%
same,BUN,[6]; [19],418 ± 43 mg/dL
same,Weight Loss,[6]; [19],18 ± 1%
same,BUN,[6]; [20],62 ± 3 mg/dL
same,Weight Loss,[6]; [20],5 ± 1%
same,Reduction in BUN or weight loss,[6]; NaDDTC 6 hours after DDP,failed to demonstrate significant reduction either in BUN or weight loss
same,Rescue efficacy,[6]; NaDDTC 6 hours after DDP,only minimal rescue efficacy (if any)
same,Diarrhea,[6]; [21],Diarrhea was not observed
same,"Kidney sections, histopathology",[6]; [21],barely discernible pale band of mild tubule degeneration in the outer zone of the outer medullary stripe
same,"Necropsy, small intestine",[6]; [21],grossly normal small intestine
same,Reduction in BUN and weight loss,[6]; [21],Marked reduction
same,Decrease in weight loss,[6]; [22],significant decrease in weight loss
same,Reduction of BUN levels,[6]; [22],without reduction of BUN levels
same,Protection from nephrotoxic effects of DDP,"[6]; NaDDTC ip 500-750 mg/kg, DDP doses as high as 8 mg/kg",would afford protection from the nephrotoxic effects of DDP
same,Adverse effects on tumor response to DDP,Rat mammary tumor 13762; [23],no adverse effects
same,"Initial response, control vs intravenous rescue group",Rat mammary tumor 13762; [23],Initial response was identical in both groups
same,Rats with relapse between days 25 and 30,"Rat mammary tumor 13762; DDP 2 mg/kg i.v., NaDDTC 100 mg/kg i.v. 2 hours after DDP, n=8",2/8
same,Other (non-relapsed) rats through day 50,"Rat mammary tumor 13762; DDP 2 mg/kg i.v., NaDDTC 100 mg/kg i.v., n=8",essentially free of tumor through day 50
same,"Minimum tumor diameter, day 23","Rat mammary tumor 13762; DDP 2 mg/kg i.v., NaDDTC 750 mg/kg i.p. 2 hours after DDP, n=11",1.3 cm
same,Rats with relapse by day 30,"Rat mammary tumor 13762; DDP 2 mg/kg i.v., NaDDTC 750 mg/kg i.p., n=11",9/11
same,Mean tumor diameter by day 30,"Rat mammary tumor 13762; DDP 2 mg/kg i.v., NaDDTC 750 mg/kg i.p., relapsed rats",2.2 cm
same,Disappearance of tumor,Rat mammary tumor 13762; [24],disappearance of tumor was not observed
same,Initial response versus unrescued group,Rat mammary tumor 13762; [24],identical to that of the unrescued group
same,Mean minimum tumor diameter at day 21,Rat mammary tumor 13762; [24],1.2 cm
same,Mean tumor diameter at day 30,Rat mammary tumor 13762; [24],3.0 cm
same,Relapse and subsequent tumor growth versus no rescue,Rat mammary tumor 13762; [24],earlier onset of relapse and more rapid subsequent tumor growth
same,Deaths,Rat mammary tumor 13762; [25],no deaths
same,Tumor-free rats by day 28,Rat mammary tumor 13762; [25],1/8
same,Initial tumor response with or without NaDDTC rescue,"Rat mammary tumor 13762; DDP 2, 4, and 8 mg/kg, NaDDTC 750 mg/kg ip",identical with or without NaDDTC rescue
same,Tumor response at DDP 4 and 8 mg/kg versus 2 mg/kg,"Rat mammary tumor 13762; DDP 4 and 8 mg/kg, DDTC rescue 750 mg/kg ip",Qualitatively similar results
same,Local recurrence and tumor growth,Rat mammary tumor 13762; NaDDTC 750 mg/kg ip,locally recurring tumors recur earlier and grow more rapidly; also recorded: local recurrence commenced earlier and tumors grew more rapidly
same,Effect of ip rescue on initial tumor response,Rat mammary tumor 13762; ip route of rescue,does not seem to have any significant adverse effect upon initial tumor response
same,Kidney sections,[7]; NaDDTC 100 mg/kg i.v.,mild hydropic changes with occasional evidence of degeneration
same,Day 5 BUN (mean ±SEM),[7]; [26],43±5 milligrams per deciliter
same,Diarrhea,[7]; [26],not observed
same,Weight loss on day 5,[7]; [26],14%
same,Kidney sections,[7]; NaDDTC 750 mg/kg i.p.,mild hydropic changes with occasional evidence of degeneration
same,Day 5 BUN (mean ±SEM),[7]; [27],73±4 milligrams per deciliter
same,Diarrhea,[7]; [27],not observed
same,Weight loss on day 5,[7]; [27],9%
same,Inhibition of platinum-induced nephrotoxicity,[7]; administered intravenously,effectively inhibit platinum-induced nephrotoxicity without deleterious effects on tumor response
same,"Protection against nephrotoxicity, intravenous vs intraperitoneal",[7]; low-dose i.v. vs. high-dose i.p. DDTC rescue,essentially equivalent for both routes
same,Reducing the toxicity (including bone marrow toxicity) of platinum compounds,[8],effective in reducing the toxicity (including bone marrow toxicity)
